Experimental data reported in patent US7312249B2, “Vitamin D analogues” (Galderma Research & Development, priority 2002, dated 2007).

What was measured:
Format in all cases: cell-based
HL60 cells = test: Activity on the differentiation of HL60 cells (NBT reduction); settings: Homo sapiens, HL-60, 96 h, 4 days of culture, NBT-positive cells counted
Text: The biological properties analogous to vitamin D may also be measured by the capacity of the product to induce differentiation of promyelocytic leukaemia cells HL60. The protocol and the results obtained with the compounds according to the invention are described in Example 6 of the present application.
Calcitriol induces the differentiation of promyelocytic leukaemia cells (HL60) into monocytes/macrophages. This differentiation-inducing effect is a well characterized marker for cellular vitamin D. One of the most important anti-microbial products of macrophages is hydrogen peroxide, which may be analyzed experimentally by the reduction of NBT (Nitroblue Tetrazolium).
The method used is the following: the HL60 cells are inoculated into 6-well plates and then treated immediately with a test compound. After 4 days of culture, the cells are incubated with phorbol TPA ester and NBT for a short period and the differentiated cells, that is to say which are positive to NBT are counted.

[1] = test system: normal human keratinocytes; test: Activity on the proliferation of human keratinocytes (BrdU incorporation); settings: Keratinocyte, 120 h, 5 days of culture, read-out: IC50 - proliferation of the KHNs
Method: The biological properties which are similar to vitamin D may also be measured by the capacity of the product to inhibit the proliferation of normal human keratinocytes (NHK in culture). The product is added to NHKs cultured under conditions promoting the proliferative state. The product is left in contact with the cells for 5 days. The number of proliferative cells is measured by incorporation of bromodeoxyuridine (BRdU) into DNA. The protocol for this test and the results obtained with the compounds according to the invention are described in Example 8 of the present application.
The method used is the following: normal human keratinocytes are inoculated at low density into a 24-well plate. After 4 hours, the compounds to be tested are added to the culture medium. After 5 days of culture, the proliferation of the kerátinocytes is determined by incorporating 5-bromo-2′-deoxyuridine (BrdU) into the DNA. The quantity of BrdU incorporated is then measured using the ELISA test (Enzyme Linked Immuno Sorbent Assay, marketed by Roche Molecular Biochemicals).

human VDR receptor = molecular target: T1, human VDR receptor (Homo sapiens, UniProt P11473); test: VDR agonist activity, co-transfection of HeLa cells with human VDR expression vector and reporter plasmid p240Hase-CAT; settings: CAT reporter (rat 24-hydroxylase promoter), 18 hours of treatment
T1 construct: expressed in transfected cells; host or cells: HeLa
T1 sequence (P11473 1-427): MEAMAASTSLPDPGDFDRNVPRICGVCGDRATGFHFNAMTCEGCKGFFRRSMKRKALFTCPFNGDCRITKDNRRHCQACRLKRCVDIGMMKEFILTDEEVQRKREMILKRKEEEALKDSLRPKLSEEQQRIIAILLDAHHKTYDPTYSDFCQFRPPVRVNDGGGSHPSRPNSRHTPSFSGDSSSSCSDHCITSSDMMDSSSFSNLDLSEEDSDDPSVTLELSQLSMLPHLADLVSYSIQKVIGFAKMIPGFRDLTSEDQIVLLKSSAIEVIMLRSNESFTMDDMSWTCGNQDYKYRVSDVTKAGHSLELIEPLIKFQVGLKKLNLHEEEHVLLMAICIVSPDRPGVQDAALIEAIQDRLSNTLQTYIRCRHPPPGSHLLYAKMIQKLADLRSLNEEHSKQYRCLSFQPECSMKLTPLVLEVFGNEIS
Method: By way of example, the VDR agonist activity may be tested on the HeLa cell line, by co-transfecting a human VDR receptor expression vector and the reporter plasmid p240Hase-CAT. The agonist activity may also be characterized in this co-transfection system by the determination of the dose necessary to reach 50% of the maximum activity of the product (AC50).
18 hours after co-transfection, the compound to be tested is added to the medium. After 18 hours of treatment, the assay of the CAT activity of the cellular lysates is carried out by an ELISA test (Enzyme Linked Immuno Sorbent Assay, marketed by Roche Molecular Biochemicals). The agonist activity may be characterized in this co-transfection system by determining the dose required to reach 50% of the maximum activity of the compound tested (AC50).

SMILES	AC50 (HL60 cells)	IC50 [1]	AC50 (human VDR receptor)
C=C1/C(=C\C=C2/CCC[C@]3(C)[C@@H]([C@H](C)CCCC(C)(C)O)CC[C@@H]23)C[C@@H](O)C[C@@H]1O [Calcitriol, 1,25-dihydroxyvitamin D3, reference compound]	10.7 nM		
Cc1cc(CCCc2ccc(CO)c(CO)c2)ccc1OCC(O)C(C)(C)C (stereo not drawn) [Compound of Example 2, 1-{4-[3-(3,4-Bis-hydroxymethyl-phenyl)-propyl]-2-methyl-phenoxy}-3,3-dimethyl-butan-2-ol]	2500 nM	140 nM	172 nM
CCc1cc(CCCc2ccc(CO)c(CO)c2)ccc1OCC(O)(CC)CC [Compound of Example 3, (4-{3-(3-Ethyl-4-(2-ethyl-2-hydroxy-butoxy)-phenyl]-propyl}-2-hydroxymethyl-phenyl)-methanol]			1210 nM
CCC(O)(CC)COc1ccc(CCCc2ccc(CO)c(CO)c2)cc1C [Compound of Example 4, (4-{3-(4-(2-Ethyl-2-hydroxy-butoxy)-3-methyl-phenyl]-propyl)-2-hydroxymethyl-phenyl)-methanol]			> 3000 nM
CCc1cc(CCCc2ccc(CO)c(CO)c2)ccc1OCC(O)C(C)(C)C (stereo not drawn) [Compound of Example 1, 1-{4-[3-(3,4-Bis-hydroxymethyl-phenyl)-propyl]-2-ethyl-phenoxy}-3,3-dimethyl-butan-2-ol]	312 nM	150 nM	40 nM
